Results from PMC12689647, “Evaluation of bromadiolone combined with ciprofloxacin, vitamin D, aspirin, and cinnamon as an apoptosis-mediated rodenticide strategy” (Scientific Reports, 2025).
Read-outs that look alike come from different tables or passages of the source.

How the values were obtained:
[1] = test system: male wild rats of Rattus norvegicus; format: in vivo; details: oral, 8 treated, one week
[2] = test system: male wild rats of Rattus norvegicus; format: in vivo; details: oral; for Mortality% / Dead: one week; for Linear probit / Linear response %: probit fit; for Dead: 8 treated
Method: An approximate LD₅₀ was initially determined as a pilot study using the staircase method. Seventy adult male rats weighing 150–200 g were randomized and divided into ten groups (n = 10 × 7). Group I served as the control, while groups II, III, IV, V, VI, VII, VIII, IX, and X were treated orally with the following doses of bromadiolone, respectively: 0.3, 0.6, 0.9, 1.1, 1.2, 1.4, 1.8, 2.2, and 2.8 mg/kg b.w. The animals were observed during the first 2 h and then at 6 and 24 h for any toxic symptoms. Time to death and mortality were recorded over four days following administration. After one week, the LD₅₀ value was determined using probit analysis as described in[27].

[3] = male wild rats, probit analysis software

`O=c1oc2ccccc2c(O)c1C(CC(O)c1ccc(-c2ccc(Br)cc2)cc1)c1ccccc1` (stereo not drawn) [Bromadiolone] was tested, and the Dead ([1]; dose 0.3 mg/kg b.w.) was 1, the Dead ([1]; dose 0.6 mg/kg b.w.) was 2 and the Dead ([1]; dose 2.2 mg/kg b.w.) was 5. For the same compound, the Mortality% ([2]; dose 0.3 mg/kg b.w.) was 12.5%, the Observed response % ([2]; dose 0.3 mg/kg b.w., probit analysis) was 14.286% and the Linear probit ([2]; dose 0.3 mg/kg b.w.) was 3.6051. For the same compound, the Linear response % ([2]; dose 0.3 mg/kg b.w.) was 8.159%, the Mortality% ([2]; dose 0.6 mg/kg b.w.) was 25% and the Observed response % ([2]; dose 0.6 mg/kg b.w., probit analysis) was 14.286%. The Linear probit ([2]; dose 0.6 mg/kg b.w.) was 4.1699, the Linear response % ([2]; dose 0.6 mg/kg b.w.) was 20.3258% and the Dead ([2]; dose 0.9 mg/kg b.w.) was 3. It also gave a Mortality% ([2]; dose 0.9 mg/kg b.w.) of 37.5%, an Observed response % ([2]; dose 0.9 mg/kg b.w., probit analysis) of 28.571% and a Linear probit ([2]; dose 0.9 mg/kg b.w.) of 4.5. It also gave a Linear response % ([2]; dose 0.9 mg/kg b.w.) of 30.855%, a Dead ([2]; dose 1.1 mg/kg b.w.) of 3 and a Mortality% ([2]; dose 1.1 mg/kg b.w.) of 37.5%. The Observed response % ([2]; dose 1.1 mg/kg b.w., probit analysis) was 28.571%, the Linear probit ([2]; dose 1.1 mg/kg b.w.) was 4.6635 and the Linear response % ([2]; dose 1.1 mg/kg b.w.) was 36.8278%. For the same compound, the Dead ([2]; dose 1.2 mg/kg b.w.) was 4, the Mortality% ([2]; dose 1.2 mg/kg b.w.) was 50% and the Observed response % ([2]; dose 1.2 mg/kg b.w., probit analysis) was 42.857%. The Linear probit ([2]; dose 1.2 mg/kg b.w.) was 4.7344, the Linear response % ([2]; dose 1.2 mg/kg b.w.) was 39.5276% and the Dead ([2]; dose 1.4 mg/kg b.w.) was 4. For the same compound, the Mortality% ([2]; dose 1.4 mg/kg b.w.) was 50%, the Observed response % ([2]; dose 1.4 mg/kg b.w., probit analysis) was 42.857% and the Linear probit ([2]; dose 1.4 mg/kg b.w.) was 4.8599. It also gave a Linear response % ([2]; dose 1.4 mg/kg b.w.) of 44.4304%, a Dead ([2]; dose 1.8 mg/kg b.w.) of 5 and a Mortality% ([2]; dose 1.8 mg/kg b.w.) of 62.5%. For the same compound, the Observed response % ([2]; dose 1.8 mg/kg b.w., probit analysis) was 57.143%, the Linear probit ([2]; dose 1.8 mg/kg b.w.) was 5.0647 and the Linear response % ([2]; dose 1.8 mg/kg b.w.) was 52.578%. For the same compound, the Mortality% ([2]; dose 2.2 mg/kg b.w.) was 62.5%, the Observed response % ([2]; dose 2.2 mg/kg b.w., probit analysis) was 57.143% and the Linear probit ([2]; dose 2.2 mg/kg b.w.) was 5.2281. It also gave a Linear response % ([2]; dose 2.2 mg/kg b.w.) of 59.022%, a Dead ([2]; dose 2.8 mg/kg b.w.) of 8 and a Mortality% ([2]; dose 2.8 mg/kg b.w.) of 100%. The Observed response % ([2]; dose 2.8 mg/kg b.w., probit analysis) was 71.429%, the Linear probit ([2]; dose 2.8 mg/kg b.w.) was 5.4246 and the Linear response % ([2]; dose 2.8 mg/kg b.w.) was 66.4427%. For the same compound, the LD25 [2, 3] was 0.7264 mg/kg, the LD50 [2, 3] was 1.6626 mg/kg and the LD75 [2, 3] was 3.8056 mg/kg. For the same compound, the LD90 [2, 3] was 8.0187 mg/kg, the LD95 [2, 3] was 12.5257 mg/kg and the LD99 [2, 3] was 28.9136 mg/kg. The “LT25, Time” value [2, 3] was 2.187 days, the “LT50, Time” value [2, 3] was 4.03 days and the “LT75, Time” value [2, 3] was 7.426 days. The “LT90, Time” value [2, 3] was 12.87 days, the “LT95, Time” value [2, 3] was 17.89 days and the “LT99, Time” value [2, 3] was 33.17 days. The LD50 ([2]; male wild rats, probit analysis software, listed as bromadiolone) was 1.6 mg/kg, the Observed response % ([2]; time 1 day) was 12.5% and the Linear probit ([2]; time 1 day) was 3.4617. It also gave a Linear response % ([2]; time 1 day) of 6.209%, an Observed response % ([2]; time 2 days) of 12.5% and a Linear probit ([2]; time 2 days) of 4.2266. The Linear response % ([2]; time 2 days) was 21.9652%, the Observed response % ([2]; time 3 days) was 37.5% and the Linear probit ([2]; time 3 days) was 4.6741. It also gave a Linear response % ([2]; time 3 days) of 37.2284%, an Observed response % ([2]; time 4 days) of 50% and a Linear probit ([2]; time 4 days) of 4.9918. It also gave a Linear response % ([2]; time 4 days) of 49.6729%, a Linear probit ([2]; time 5 days) of 5.2381 and a Linear response % ([2]; time 5 days) of 59.4089%. The Observed response % ([2]; time 7 days) was 87.5%, the Linear probit ([2]; time 7 days) was 5.6093 and the Linear response % ([2]; time 7 days) was 72.8843%.
